Calls of active or inactive are those of the source.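 Rule for the calls: active = mean IC50, the dose halving TNF-driven NF-kB light signal, at or below a set limit; inactive = the rest.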
What follows are compounds tested on HEK-293T NF-kB-Luc, TNFa-induced, luminescence, 14 h (assay: inhibitors of TNFa-induced NF-kB reporter, dose response, counter-screen for BCR/TCR NF-kB inhibitor project, cell-based, HEK-293T NF-kB-Luc, luminescence, hits from both screens (AID 489020);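 note: TNF-alpha stimulus at 0.1 ng/mL added with the seeded cells; selectivity counterscreen for hits from B- and T-cell receptor NF-kB screens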).

For `CC(C)(O)c1[nH]c2ccc(C#N)cc2c1C(C)(C)O`, the IC50 was 65800 nM (inactive).
`COc1cc([N+](=O)[O-])cc(/C=N/NC(=O)c2ccc(NC(=O)c3ccc(C)cc3)cc2)c1O` was tested, and the IC50 was 22500 nM (inactive).
With `Cc1ccc(C(=O)Nc2cccc(C(F)(F)F)c2)cc1NC(=O)c1ccno1` the IC50 was > 80000 nM (inactive).
With `COc1cc(/C=N/NC(=S)Nc2cccc(C(=O)O)c2)ccc1O` the IC50 was 23400 nM (inactive).
With `Cc1cc([N+](=O)[O-])nn1Cc1ccccc1F` the IC50 was > 80000 nM (inactive).
With `N#CC(c1cccc(Cl)c1)c1ccc2c(C(F)(F)F)cc(C(F)(F)F)nc2n1` (stereo unspecified) the IC50 was > 80000 nM (inactive).
With `c1ccc2sc(Sc3ncnc4sccc34)nc2c1` the IC50 was 21400 nM (inactive).
`COc1cc(NC(C)CCCN)c2ncccc2c1` (stereo unspecified) was tested, and the IC50 was 22900 nM (inactive).
`CCCCCNC(=O)c1ccc2c(=O)n(CC3CCCO3)c(=O)[nH]c2c1` (stereo unspecified) was tested, and the IC50 was > 80000 nM (inactive).
With `O=C(c1ccc(Br)cc1)c1cc([N+](=O)[O-])ccc1N1CCCCC1` the IC50 was 24500 nM (inactive).
`COc1cccc2c1C(=O)c1c(O)c3c(c(O)c1C2=O)C[C@@](O)(C(=O)CO)C[C@@H]3O[C@H]1C[C@H](N)[C@@H](O)[C@H](C)O1` was tested, and the IC50 was > 80000 nM (inactive).
For `CCc1ccc(-c2nc(CS(=O)CC(=O)NCc3ccco3)c(C)o2)cc1` (stereo unspecified), the IC50 was 57900 nM (inactive).
`COc1cc2nc(NC(=O)c3ccccc3)sc(=O)c2cc1OC` was tested, and the IC50 was > 80000 nM (inactive).
In the case of `O=C(NCCNCCO)C1(C(F)(F)F)C/C(=C\CCO)CCCO1` (stereo unspecified), the IC50 is reported as > 80000 nM (inactive).

Compared with `COc1cc(NC(=O)COc2cc(O)c3c(c2)OC(C)(C)CC3=O)cc(OC)c1OC`, `COc1cc2c(cc1OC)[C@@H]1C(=O)c3ccc4c(c3O[C@@H]1CO2)C[C@H](C(C)C)O4` is lower in IC50: 380 nM for the first, under 160 nM for the second. The second is the more potent here.

Going from `O=C(CSc1nnnn1C1CC2CCC1C2)Nc1ccnc2ccccc12` (stereo unspecified) to `Cn1nc(CC(=O)Nc2ccc3c(c2)CCC3)c2ccccc2c1=O`, the IC50 rises from under 160 nM to 220 nM. The first is the more potent here.

`C#CC(=O)N(c1cc(OC)ccc1OC)C(C(=O)NC1CCCC1)c1cccs1` (stereo unspecified) and `C#CC(=O)N(c1ccc(OC)cc1OC)C(C(=O)NC1CCCC1)c1cccs1` (stereo unspecified) are within 1.5-fold of each other in IC50: 3850 nM for the first, 4970 nM for the second.

First: C[C@@H]1O[C@@H](O[C@@H]2C=C3CC[C@@H]4C(CC[C@]5(C)[C@@H](c6ccc(=O)oc6)CC[C@]45O)[C@@]3(C)CC2)[C@H](O)[C@H](O)[C@H]1O (stereo partly specified)
Second: CC(=O)OC(C)(C)/C=C/C(=O)[C@](C)(O)C1[C@H](O)C[C@@]2(C)C3CC=C4C(C[C@H](O)C(=O)C4(C)C)[C@]3(C)C(=O)C[C@]12C (stereo partly specified)
The IC50 of the first is lower: under 160 nM for the first, 11300 nM for the second. The first is the more potent here.

Compared with `Cc1sc2ncnc(N3CCN(CCOc4ccc(Cl)cc4)CC3)c2c1C`, `Cc1cc(N2CCN(c3nc4ccccc4s3)CC2)n2ncnc2n1` is higher in IC50: under 160 nM for the first, 1260 nM for the second. The first is the more potent here.

First: O=C(CN1C(=O)c2ccccc2S1(=O)=O)c1ccc2c(c1)OCCO2
Second: COc1ccc(C(=O)CN2C(=O)c3ccccc3S2(=O)=O)cc1
The IC50 of the first is 4-fold lower: 200 nM for the first, 790 nM for the second.

Compared with `Nc1nc(Cl)nc2c1ncn2[C@H]1C[C@H](O)[C@@H](CO)O1`, `Nc1ncnc2c1ccn2[C@@H]1O[C@H](CO)[C@@H](O)[C@H]1O` is 2.5-fold lower in IC50: 18400 nM for the first, 7420 nM for the second. The second is the more potent here.

Going from `O=C(Nc1nc(-c2ccc(F)c(F)c2)cs1)c1ccc(OCC2CCCO2)cc1` (stereo unspecified) to `CCOc1ccc(-c2cc(CCCC(=O)Nc3cccc(OC)c3)no2)cc1`, the IC50 rises from 1560 nM to 14000 nM (9-fold). The first is the more potent here.

Compared with `OCCCNc1cc(-c2ccnc(Nc3cccc(Cl)c3)n2)ccn1`, `COc1cccc(NC(=O)Nc2cccc(C(=O)O)c2)c1` is 14-fold higher in IC50: 380 nM for the first, 5440 nM for the second. The first is the more potent here.

`CC(=O)c1cn(Cc2ccccc2C#N)c2ccccc12` and `COc1ccccc1C(=O)Nc1nc2ccccc2[nH]1` are within 1.5-fold of each other in IC50: 880 nM for the first, 800 nM for the second.

`COc1ccc(CN(C)c2ccc(S(=O)(=O)N3CCN(C)CC3)cc2[N+](=O)[O-])cc1OC` and `COc1ccc(CCNc2ncnc3sccc23)cc1OC` cannot be ordered by IC50: under 160 nM for the first, under 160 nM for the second.

Compared with `O=C(NCCc1ccccc1F)c1ccc2c(c1)OCCO2`, `O=C(NCCc1ccccc1)c1ccc2c(c1)OCCCO2` is 1.6-fold lower in IC50: 1420 nM for the first, 900 nM for the second. The second is the more potent here.

Compared with `CCCCCCCCCn1ccc(=N)cc1`, `CCCCCCCCCCCCn1ccc(=N)cc1` is 4.7-fold higher in IC50: 510 nM for the first, 2390 nM for the second. The first is the more potent here.

First: CC[n+]1c(C=C2C=C(C)OC(C)=C2)sc2ccccc21
Second: CCN1/C(=C\c2ccc3ccccc3[n+]2CC)Sc2cc(C)ccc21
The IC50 of the first is 3-fold higher: 1900 nM for the first, 630 nM for the second. The second is the more potent here.

Compared with `C#CC(=O)N(c1cccc(OC)c1)C(C(=O)NC1CCCC1)c1cccs1` (stereo unspecified), `Cc1ccc(NC(=O)COc2ccc(N(C)C(=O)C(C)(C)C)cc2)cc1S(=O)(=O)N1CCCCC1` is 1.5-fold lower in IC50: 2650 nM for the first, 1740 nM for the second.

First: COC(=O)Cc1ccc(NC(=O)c2ccc(C(C)(C)C)cc2)cc1
Second: CC(C)(C)c1ccc(C(=O)Nc2ccc(CC(=O)O)cc2)o1
The IC50 of the first is 2.6-fold higher: 440 nM for the first, 170 nM for the second.

Going from `CCCCC[n+]1cccc2c3ccccc3ccc21` to `C[n+]1c(-c2ccccc2)c2cc(N)ccc2c2ccc(N)cc21`, the IC50 rises from 2130 nM to 8250 nM (3.9-fold). The first is the more potent here.

First: CN(C(=O)OC(C)(C)C)c1ccc(-c2nc3ccccc3s2)cc1
Second: CN(C)c1ccc(-c2n(C)c3ccccc3[n+]2C)cc1
The IC50 of the first is lower: under 160 nM for the first, 6580 nM for the second. The first is the more potent here.

First: C=C1C(=O)O[C@@H]2C[C@@H](C)[C@@H]3C=CC(=O)[C@@]3(C)[C@@H](OC(=O)CC(=O)O[C@H]3[C@@H]4C(=C)C(=O)O[C@@H]4C[C@@H](C)[C@@H]4C=CC(=O)[C@]43C)[C@H]12
Second: Cc1cc(C(=O)COC(=O)c2ccccc2O)c(C)n1CC1CCCO1 (stereo unspecified)
The IC50 of the first is 3.9-fold higher: 1480 nM for the first, 380 nM for the second. The second is the more potent here.

Compared with `Cc1ccc(Cn2ccsc2=NC(=O)CCl)cc1`, `COc1ccc(CCNc2c(C)c(C)nc3ncnn23)cc1` is 35-fold lower in IC50: 15500 nM for the first, 440 nM for the second. The second is the more potent here.

Compared with `O=S(=O)(NCC1CCCO1)c1ccc(-c2ccc(S(=O)(=O)NCC3CCCO3)cc2)cc1` (stereo unspecified), `CCOC(=O)C1CCCN(S(=O)(=O)c2ccc(S(=O)(=O)N(CC)CC)cc2)C1` (stereo unspecified) is 1.8-fold higher in IC50: 320 nM for the first, 560 nM for the second.

Going from `CN(C)c1cc[n+](CC(=O)c2ccc(-c3ccccc3)cc2)cc1` to `COc1ccc(CNc2ncc(-c3ccc(F)cc3)n2C)c2ccccc12`, the IC50 rises from 3960 nM to 17800 nM (4.5-fold). The first is the more potent here.

`COc1cc(SC)ccc1C(=O)Nc1nc2ccccc2[nH]1` and `COc1ccc(C(=O)Nc2nc3ccccc3s2)c(OC)c1` are within 1.5-fold of each other in IC50: 200 nM for the first, 220 nM for the second.

`CC(C)(C)c1ccc(C(=O)N2CCCCCC2=O)cc1` and `O=C(COC(=O)c1ccc[nH]c1=O)Nc1ccc(N2CCCCC2)cc1` are within 1.5-fold of each other in IC50: 1780 nM for the first, 1200 nM for the second.

Going from `COCCn1c(C)cc(C2=NNC(=NC3CC3)SC2)c1C` to `CCn1c(C)cc(C(=O)COC(=O)c2ccccc2[N+](=O)[O-])c1C`, the IC50 falls from 330 nM to under 160 nM. The second is the more potent here.

Compared with `N#Cc1c(NC(=O)CSc2ncn[nH]2)sc2c1CCCC2`, `N#Cc1c(NC(=O)CSc2ncn[nH]2)sc2c1CCCCC2` is 3.4-fold lower in IC50: 610 nM for the first, 180 nM for the second. The second is the more potent here.

First: Cc1ccc2nc(NC(=O)CCCC(=O)O)sc2c1
Second: CCOc1ccc(NC(=O)Nc2cccc(C(=O)O)c2)cc1
The IC50 of the first is 1.7-fold higher: 3130 nM for the first, 1850 nM for the second. The second is the more potent here.

`COc1ccc(CCNc2ncnc3sc(C)cc23)cc1OC` and `CCOc1cc(S(=O)(=O)NCc2ccncc2)ccc1Cl` cannot be ordered by IC50: under 160 nM for the first, under 160 nM for the second.

Compared with `NC1=NC[C@H](Cc2ccc(O)cc2)N1CCCCC1CCCCC1`, `CC1(c2ccc3ccccc3c2)NC(=O)N(CC(=O)N2CCN(Cc3ccc(C#N)cc3)CC2)C1=O` (stereo unspecified) is 61-fold lower in IC50: 12900 nM for the first, 210 nM for the second. The second is the more potent here.

Going from `COc1cccc2c1C(CO)N1C(C#N)C3CC(C(=O)O)C(C1C2)N3C` (stereo unspecified) to `Cc1nn(-c2ccccc2)c(C)c1/C=N/NC(=O)c1cc(-c2cccs2)[nH]n1`, the IC50 rises from under 160 nM to 3540 nM. The first is the more potent here.

Compared with `CN=c1scc(-c2ccccc2F)n1/N=C/c1ccc[nH]1`, `COc1ccc(-c2nc(-c3ccccn3)no2)cc1` is 1.7-fold higher in IC50: 1210 nM for the first, 2000 nM for the second. The first is the more potent here.
